Patent US20250223268A1, “4-Methylsulfonylbenzamide Compound, Preparation Method, Herbicidal Composition And Use” (Jiangsu Flag Chemical Industry Co., Ltd., priority 2022, published 2025)

Experiments:
Assay in all cases: Greenhouse herbicidal activity assay, post-emergence
Assay type in all cases: in vivo
Conditions in all cases: Post-emergence test, rate 150 g a.i./hm^2; grade by fresh weight inhibition rate
Eclipta prostrata = tested on: Eclipta prostrata
Method in brief: (§1)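 Weeds were sown in nutrient soil in 7 cm pots and grown in a growth chamber to the 3-6 leaf stage, then foliar-sprayed, air-dried and returned to the chamber. Fresh weight inhibition was scored 14-21 days later in bands from A (≥80% to 100%) to E (<20%).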

Digitaria sanguinalis = tested on: Digitaria sanguinalis
Method in brief: as §1

Leptochloa chinensis = tested on: Leptochloa chinensis
Method in brief: as §1

Cyperus iria = tested on: Cyperus iria
Method in brief: as §1

Echinochloa crusgalli = tested on: Echinochloa crusgalli
Method in brief: as §1

Compound	Control efficacy grade, Eclipta prostrata (Eclipta prostrata)	Control efficacy grade, Digitaria sanguinalis (Digitaria sanguinalis)	Control efficacy grade, Leptochloa chinensis (Leptochloa chinensis)	Control efficacy grade, Cyperus iria (Cyperus iria)	Control efficacy grade, Echinochloa crusgalli (Echinochloa crusgalli)
CCC(C)[S+]([O-])c1c(S(C)(=O)=O)ccc(C(=O)Nc2ncnn2C)c1Cl (mixture of isomers) [Compound 2-19]	A (Fresh weight inhibition rate≥80% to 100%)	A (Fresh weight inhibition rate≥80% to 100%)	A (Fresh weight inhibition rate≥80% to 100%)	A (Fresh weight inhibition rate≥80% to 100%)	A (Fresh weight inhibition rate≥80% to 100%)
CS(=O)(=O)c1ccc(C(=O)Nc2nnco2)c(Cl)c1SCC1CC1 [Compound 3-298]	A (Fresh weight inhibition rate≥80% to 100%)	A (Fresh weight inhibition rate≥80% to 100%)	A (Fresh weight inhibition rate≥80% to 100%)	A (Fresh weight inhibition rate≥80% to 100%)	A (Fresh weight inhibition rate≥80% to 100%)
CCC[S+]([O-])c1c(S(C)(=O)=O)ccc(C(=O)Nc2nnc(C3CC3)o2)c1Cl (racemic) [Compound 3-616]	A (Fresh weight inhibition rate≥80% to 100%)	A (Fresh weight inhibition rate≥80% to 100%)	A (Fresh weight inhibition rate≥80% to 100%)	A (Fresh weight inhibition rate≥80% to 100%)	A (Fresh weight inhibition rate≥80% to 100%)
CC(C)[S+]([O-])c1c(S(C)(=O)=O)ccc(C(=O)Nc2ncnn2C)c1Cl (single isomer, unassigned) [Compound 2-9]	A (Fresh weight inhibition rate≥80% to 100%)	A (Fresh weight inhibition rate≥80% to 100%)	A (Fresh weight inhibition rate≥80% to 100%)	A (Fresh weight inhibition rate≥80% to 100%)	A (Fresh weight inhibition rate≥80% to 100%)
C=CCS(=O)(=O)c1c(S(C)(=O)=O)ccc(C(=O)Nc2ncnn2C)c1Cl [Compound 2-71]	A (Fresh weight inhibition rate≥80% to 100%)	A (Fresh weight inhibition rate≥80% to 100%)	A (Fresh weight inhibition rate≥80% to 100%)	A (Fresh weight inhibition rate≥80% to 100%)	A (Fresh weight inhibition rate≥80% to 100%)
CCCS(=O)(=O)c1c(S(C)(=O)=O)ccc(C(=O)Nc2ncnn2C)c1Cl [Compound 2-5]	A (Fresh weight inhibition rate≥80% to 100%)	B (Fresh weight inhibition rate≥260% to <80%)	A (Fresh weight inhibition rate≥80% to 100%)	A (Fresh weight inhibition rate≥80% to 100%)	B (Fresh weight inhibition rate≥260% to <80%)
Cc1nnc(NC(=O)c2ccc(S(C)(=O)=O)c(SCC3CC3)c2Cl)o1 [Compound 3-37]	A (Fresh weight inhibition rate≥80% to 100%)	A (Fresh weight inhibition rate≥80% to 100%)	A (Fresh weight inhibition rate≥80% to 100%)	A (Fresh weight inhibition rate≥80% to 100%)	A (Fresh weight inhibition rate≥80% to 100%)
